Test results taken from patent US20250320213A1, “Nitrogen-Containing Heterocyclic Compounds” (Pfizer Inc., priority 2024, published 2025).

What was measured:
STAT6 = biological target: T1, STAT6 (Homo sapiens, UniProt P42226); test: STAT6 Reporter Luciferase Assay (IL-13 stimulated HaCaT keratinocyte NanoLuc reporter cells); format: cell-based; settings: STAT6 NanoLuc luciferase reporter, IL-13 stimulated HaCaT keratinocyte cells; read-out: Reporter EC50
T1 construct: stably transfected HaCaT keratinocyte cell line, which expresses NanoLuc luciferase reporter gene under the transcriptional control of the STAT6 responsive promoter; endogenous in cells; host or cells: HaCaT keratinocyte reporter cell line (stably transfected with a NanoLuc reporter)
T1 sequence (P42226 1-847): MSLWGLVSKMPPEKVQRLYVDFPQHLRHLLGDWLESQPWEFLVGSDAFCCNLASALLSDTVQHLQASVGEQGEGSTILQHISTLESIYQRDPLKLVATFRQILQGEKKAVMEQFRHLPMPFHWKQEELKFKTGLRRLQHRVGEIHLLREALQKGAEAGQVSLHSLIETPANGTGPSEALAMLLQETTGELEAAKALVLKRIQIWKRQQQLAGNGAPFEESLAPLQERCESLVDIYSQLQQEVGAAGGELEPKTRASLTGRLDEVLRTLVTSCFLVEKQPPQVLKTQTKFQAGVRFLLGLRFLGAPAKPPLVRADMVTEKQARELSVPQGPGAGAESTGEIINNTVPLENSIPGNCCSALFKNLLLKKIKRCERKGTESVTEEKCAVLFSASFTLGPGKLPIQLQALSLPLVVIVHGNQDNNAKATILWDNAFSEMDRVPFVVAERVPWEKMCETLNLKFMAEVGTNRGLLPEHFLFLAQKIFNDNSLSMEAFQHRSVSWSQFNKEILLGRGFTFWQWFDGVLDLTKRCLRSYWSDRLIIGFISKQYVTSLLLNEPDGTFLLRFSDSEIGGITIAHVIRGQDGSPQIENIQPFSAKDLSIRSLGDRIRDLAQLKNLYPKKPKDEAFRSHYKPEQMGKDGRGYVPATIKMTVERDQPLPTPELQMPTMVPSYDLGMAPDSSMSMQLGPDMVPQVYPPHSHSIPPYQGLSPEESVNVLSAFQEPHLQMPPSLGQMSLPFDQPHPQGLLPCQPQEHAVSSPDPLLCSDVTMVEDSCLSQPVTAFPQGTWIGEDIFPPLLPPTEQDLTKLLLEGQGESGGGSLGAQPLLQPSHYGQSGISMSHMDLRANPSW
Procedure, shortened: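 IL-13 (0.12 nM, 4 h) stimulated STAT6 reporter activity in HaCaT cells after a 2 h compound pre-incubation; NanoLuc signal was measured.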

[1] = test system: CCL17 secretion in peripheral human whole blood; test: Human Whole Blood (HWB) CCL17 TR-FRET Assay (IL-13 stimulated CCL17 secretion); format: cell-based; settings: Homo sapiens, 48 h, inhibition of CCL17 secretion in human whole blood, 10 ng/mL IL13, 48 hours
Procedure, shortened: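 Heparinized peripheral human whole blood was preincubated with compound (11-point, 3-fold series, duplicate) for 2 h at 37 °C, then stimulated with IL-13 at 10 ng/mL final for 48 h at 37 °C. Secreted CCL17 in the serum was quantified by TR-FRET sandwich immunoassay (665/615 nm ratio, 16 h RT); IC50 derived.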

| SMILES | EC50 (STAT6) | IC50 [1] |
| --- | --- | --- |
| CC(C)n1nc(C(=O)NCc2ccc(NC(=O)N(C)C)cc2)c2c1CCN(c1ccc(C(N)=O)cn1)C2 [Example 137, 5-(5-carbamoylpyridin-2-yl)-N-(4-(3,3-dimethylureido)benzyl)-1-isopropyl-4,5,6,7-tetrahydro-1H-pyrazolo[4,3-c]pyridine-3-carboxamide] | 1860 nM | 9690 nM |
| CC(C)n1nc(C(=O)NCc2ccc(NC(=O)N(C)C)cc2)c2c1CCN(c1ccc(NS(C)(=O)=O)cn1)C2 [Example 138, N-(4-(3,3-dimethylureido)benzyl)-1-isopropyl-5-(5-(methylsulfonamido)pyridin-2-yl)-4,5,6,7-tetrahydro-1H-pyrazolo[4,3-c]pyridine-3-carboxamide] | 248 nM | 1140 nM |
| CC(C)n1nc(C(=O)NCc2ccc(NC(=O)N(C)C)cc2)c2c1C[C@H](C)N(c1ccc(C(=O)N(C)C)cn1)C2 [Example 139, (S)-5-(5-(dimethylcarbamoyl)pyridin-2-yl)-N-(4-(3,3-dimethylureido)benzyl)-1-isopropyl-6-methyl-4,5,6,7-tetrahydro-1H-pyrazolo[4,3-c]pyridine-3-carboxamide] | 2 nM | 7 nM |
| CC(C)n1nc(C(=O)NCc2ccc(NC(=O)N3C[C@@H](F)[C@@H](F)C3)cc2)c2c1CCN(c1ccc(C(=O)N(C)C)cn1)C2 [Example 140, N-(4-((3R,4S)-3,4-difluoropyrrolidine-1-carboxamido)benzyl)-5-(5-(dimethylcarbamoyl)pyridin-2-yl)-1-isopropyl-4,5,6,7-tetrahydro-1H-pyrazolo[4,3-c]pyridine-3-carboxamide] | 12 nM | 144 nM |
| CC(C)n1nc(C(=O)NCc2ccc(NC(=O)N3CC(N(C)C)C3)cc2)c2c1CCN(c1ccc(C(=O)N(C)C)cn1)C2 [Example 141, N-(4-(3-(dimethylamino)azetidine-1-carboxamido)benzyl)-5-(5-(dimethylcarbamoyl)pyridin-2-yl)-1-isopropyl-4,5,6,7-tetrahydro-1H-pyrazolo[4,3-c]pyridine-3-carboxamide] | 22 nM | 78 nM |
| CC(C)n1nc(C(=O)NCc2ccc(NC(=O)N3C[C@@H]4CC[C@H]3CO4)cc2)c2c1CCN(c1ccc(C(=O)N(C)C)cn1)C2 [Example 142, (1S,4S)-N-(4-((5-(5-(dimethylcarbamoyl)pyridin-2-yl)-1-isopropyl-4,5,6,7-tetrahydro-1H-pyrazolo[4,3-c]pyridine-3-carboxamido)methyl)phenyl)-2-oxa-5-azabicyclo[2.2.2]octane-5-carboxamide] | 15 nM | 39 nM |
| CC(C)n1nc(C(=O)NCc2ccc(NC(=O)N3CCCCC3)cc2)c2c1CCN(c1ccc(C(=O)N(C)C)cn1)C2 [Example 144, 5-(5-(dimethylcarbamoyl)pyridin-2-yl)-1-isopropyl-N-(4-(piperidine-1-carboxamido)benzyl)-4,5,6,7-tetrahydro-1H-pyrazolo[4,3-c]pyridine-3-carboxamide] | 7 nM | 292 nM |
| CC(C)n1nc(C(=O)NCc2ccc(NC(=O)N(C)C)cc2)c2c1CCN(c1ccc(N3CCCS3(=O)=O)cn1)C2 [Example 146, N-(4-(3,3-dimethylureido)benzyl)-5-(5-(1,1-dioxidoisothiazolidin-2-yl)pyridin-2-yl)-1-isopropyl-4,5,6,7-tetrahydro-1H-pyrazolo[4,3-c]pyridine-3-carboxamide] | 127 nM | 2120 nM |
| CC(=O)Nc1ccc(CNC(=O)c2nn(C(C)C)c3c2CN(c2ccc(C(=O)N(C)C)cn2)CC3)cc1 [Example 147, N-(4-acetamidobenzyl)-5-(5-(dimethylcarbamoyl)pyridin-2-yl)-1-isopropyl-4,5,6,7-tetrahydro-1H-pyrazolo[4,3-c]pyridine-3-carboxamide] | 26 nM | 252 nM |
| CN(C)C(=O)Nc1ccc(CNC(=O)c2nn(C(C)(C)C)c3c2CN(c2ccc(C(=O)N(C)C)cn2)CC3)cc1 [Example 148, 1-(tert-butyl)-5-(5-(dimethylcarbamoyl)pyridin-2-yl)-N-(4-(3,3-dimethylureido)benzyl)-4,5,6,7-tetrahydro-1H-pyrazolo[4,3-c]pyridine-3-carboxamide] | 10 nM | 176 nM |
| CC(C)n1nc(C(=O)NCc2ccc(NC(=O)N3CC(C)(N(C)C)C3)cc2)c2c1CCN(c1ccc(C(=O)N(C)C)cn1)C2 [Example 150, N-(4-(3-(dimethylamino)-3-methylazetidine-1-carboxamido)benzyl)-5-(5-(dimethylcarbamoyl)pyridin-2-yl)-1-isopropyl-4,5,6,7-tetrahydro-1H-pyrazolo[4,3-c]pyridine-3-carboxamide] | 18 nM | 70 nM |
| CC(C)n1nc(C(=O)NCc2ccc(NC(=O)N3CCC4(COC4)C3)cc2)c2c1CCN(c1ccc(C(=O)N(C)C)cn1)C2 [Example 152, N-(4-((5-(5-(dimethylcarbamoyl)pyridin-2-yl)-1-isopropyl-4,5,6,7-tetrahydro-1H-pyrazolo[4,3-c]pyridine-3-carboxamido)methyl)phenyl)-2-oxa-6-azaspiro[3.4]octane-6-carboxamide] | 31 nM | 155 nM |
| CC(C)n1nc(C(=O)NCc2ccc(NC(=O)N3CC[C@H](F)C3)cc2)c2c1CCN(c1ccc(C(=O)N(C)C)cn1)C2 [Example 153, (S)-5-(5-(dimethylcarbamoyl)pyridin-2-yl)-N-(4-(3-fluoropyrrolidine-1-carboxamido)benzyl)-1-isopropyl-4,5,6,7-tetrahydro-1H-pyrazolo[4,3-c]pyridine-3-carboxamide] | 11 nM | 108 nM |
| CC(C)n1nc(C(=O)NCc2ccc(NC(=O)NCC3CC3)cc2)c2c1CCN(c1ccc(C(=O)N(C)C)cn1)C2 [Example 154, N-(4-(3-(cyclopropylmethyl)ureido)benzyl)-5-(5-(dimethylcarbamoyl)pyridin-2-yl)-1-isopropyl-4,5,6,7-tetrahydro-1H-pyrazolo[4,3-c]pyridine-3-carboxamide] | 8 nM | 449 nM |
| CC(C)n1nc(C(=O)NCc2ccc(NC(=O)N3CCC4(CC3)COC4)cc2)c2c1CCN(c1ccc(C(=O)N(C)C)cn1)C2 [Example 156, N-(4-((5-(5-(dimethylcarbamoyl)pyridin-2-yl)-1-isopropyl-4,5,6,7-tetrahydro-1H-pyrazolo[4,3-c]pyridine-3-carboxamido)methyl)phenyl)-2-oxa-7-azaspiro[3.5]nonane-7-carboxamide] | 6 nM | 58 nM |
| CC(C)n1nc(C(=O)NCc2ccc(NC(=O)NC3CCC3)cc2)c2c1CCN(c1ccc(C(=O)N(C)C)cn1)C2 [Example 157, N-(4-(3-cyclobutylureido)benzyl)-5-(5-(dimethylcarbamoyl)pyridin-2-yl)-1-isopropyl-4,5,6,7-tetrahydro-1H-pyrazolo[4,3-c]pyridine-3-carboxamide] | 8 nM | 535 nM |
| CC(C)n1nc(C(=O)NCc2ccc(NC(=O)N3CC(C#N)C3)cc2)c2c1CCN(c1ccc(C(=O)N(C)C)cn1)C2 [Example 158, N-(4-(3-cyanoazetidine-1-carboxamido)benzyl)-5-(5-(dimethylcarbamoyl)pyridin-2-yl)-1-isopropyl-4,5,6,7-tetrahydro-1H-pyrazolo[4,3-c]pyridine-3-carboxamide] | 15 nM | 130 nM |
| CC(C)n1nc(C(=O)NCc2ccc(NC(=O)N3CCO[C@H](CO)C3)cc2)c2c1CCN(c1ccc(C(=O)N(C)C)cn1)C2 [Example 159, (S)-N-(4-((5-(5-(dimethylcarbamoyl)pyridin-2-yl)-1-isopropyl-4,5,6,7-tetrahydro-1H-pyrazolo[4,3-c]pyridine-3-carboxamido)methyl)phenyl)-2-(hydroxymethyl)morpholine-4-carboxamide] | 16 nM | 59 nM |
| CC(C)n1nc(C(=O)NCc2ccc(NC(=O)N3CCC(C(F)F)CC3)cc2)c2c1CCN(c1ccc(C(=O)N(C)C)cn1)C2 [Example 161, N-(4-(4-(difluoromethyl)piperidine-1-carboxamido)benzyl)-5-(5-(dimethylcarbamoyl)pyridin-2-yl)-1-isopropyl-4,5,6,7-tetrahydro-1H-pyrazolo[4,3-c]pyridine-3-carboxamide] | 7 nM | 199 nM |
